Laboratory results as given in PMC3531252 (EJNMMI Research, 2012).
“And” between values parts separate entries of the source, which are not always exact repeats. Equal entries are not always repeated.

Experiments:
GlyT1 [1] = target: T1, GlyT1 (Homo sapiens, UniProt P48067); assay: in vitro whole-hemisphere autoradiography on human brain slices; format: binding; conditions: blocker 10 μM
T1 construct: whole-hemisphere autoradiography (ARG) on human brain slices; from tissue; host or cells: post-mortem human brain whole-hemisphere cryosections
T1 sequence (P48067 1-706): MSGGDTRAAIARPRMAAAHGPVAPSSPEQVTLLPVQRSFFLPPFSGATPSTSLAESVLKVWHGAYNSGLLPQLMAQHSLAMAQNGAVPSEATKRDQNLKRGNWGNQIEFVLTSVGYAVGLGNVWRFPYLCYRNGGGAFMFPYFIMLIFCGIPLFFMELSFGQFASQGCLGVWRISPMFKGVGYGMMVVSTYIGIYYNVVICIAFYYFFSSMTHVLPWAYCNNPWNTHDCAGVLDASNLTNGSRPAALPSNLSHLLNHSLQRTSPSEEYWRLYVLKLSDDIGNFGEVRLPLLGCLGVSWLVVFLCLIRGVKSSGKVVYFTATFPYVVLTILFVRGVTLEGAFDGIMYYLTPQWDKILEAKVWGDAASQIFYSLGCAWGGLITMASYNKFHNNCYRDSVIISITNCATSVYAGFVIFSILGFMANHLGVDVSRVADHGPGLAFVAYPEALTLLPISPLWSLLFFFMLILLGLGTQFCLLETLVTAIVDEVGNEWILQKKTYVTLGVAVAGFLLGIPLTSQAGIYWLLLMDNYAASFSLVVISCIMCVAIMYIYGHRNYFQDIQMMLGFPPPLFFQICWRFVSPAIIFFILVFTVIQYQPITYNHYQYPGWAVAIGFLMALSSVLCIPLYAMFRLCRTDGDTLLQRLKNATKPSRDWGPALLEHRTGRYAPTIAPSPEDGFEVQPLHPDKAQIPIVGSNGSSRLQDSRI
Procedure: Human brains without pathology were obtained from the National Institute of Forensic Medicine, Karolinska Institutet (Stockholm, Sweden) as well as from the Department of Forensic and Insurance Medicine, Semmelweis University, Budapest. […] The sectioning of the brains and the autoradiography experiments were performed at the Department of Clinical Neuroscience, Karolinska Institutet. The cryosectioning took place on a Leica cryomacrocut system (San Marcos, CA, USA) [28, 29]. Horizontal sections (100 μm thick, containing cerebral cortex, white matter, cerebellum, and pons) and coronal sections (100 μm thick, containing cerebral cortex, white matter, putamen, and caudate nucleus) were used. […] For comparison with other GlyT1 radioligands, blocking was also made with SSR504734 (10 μM). The slices were rinsed thrice for 3 min each with cold (5°C) washing buffer (120 mM NaCl, 50 mM Tris–HCl, pH = 7.5) and subsequently dipped into cold water. The slides were then placed on an imaging plate (Fujifilm Plate BAS-TR2025, Fujifilm, Tokyo, Japan) for 20 min. The plates were developed, and the resulting images were processed in a Fujifilm BAS-5000 phosphorimager (Fujifilm, Tokyo, Japan). […] The autoradiography (ARG) signal's optical density was measured using Multi Gauge 3.2 image analysis software (Fujifilm, Tokyo, Japan).

GlyT1 [2] = assay: GlyT1 occupancy and VND by Lassen plot, PET in rhesus monkeys; format: in vivo, rhesus monkey; conditions: for GlyT1 occupancy: seven regions
Procedure: PET measurements were performed for 123 min immediately after i.v. injection of radioligand at baseline and after pretreatment with SSR504734. SSR504734 was administered over 15 min, starting 30 min before the radioligand injection. PET measurements were performed on two separate days with two monkeys. One baseline PET measurement and one PET measurement after pretreatment with 1.5 mg/kg of SSR504734 were performed on one monkey. One baseline PET measurement and one PET measurement after pretreatment with 4.5 mg/kg were performed on the other monkey.
GlyT1 occupancy was estimated by applying Lassen plot approach, which can determine nondisplaceable distribution volume (VND) and occupancy using VT values at baseline and after pretreatment. Seven regions (the pons, cerebellum, putamen, frontal cortex, caudate, anterior cingulate cortex, and temporal cortex) were used for the plot.

Structure (SMILES): O=C(N[C@@H](c1ccccc1)[C@@H]1CCCCN1)c1cccc(C(F)(F)F)c1Cl [SSR504734, reference compound]
- reduction of [11C]N-methyl-SSR504734 binding by blocker (GlyT1 [1]): prominent in the white matter and pons
- GlyT1 occupancy (GlyT1 [2]; 1.5 mg/kg SSR504734, rhesus monkey 1, Lassen plot): 45% and 45.2%
- GlyT1 occupancy (GlyT1 [2]; 4.5 mg/kg SSR504734, rhesus monkey 2, Lassen plot): 74.3%
- Kd of occupancy-dose relationship (GlyT1 [2]; Omax assumed 100%): 1.7 mg/kg
